# From the METLIN SMRT retention time set (Domingo-Almenara et al. 2019)
# Assay: gradient 5% acetonitrile 3 min, to 50% in 2 min, to 85% in 15 min, held 3 min, 100 µL/min
# Settings: column: Zorbax Extend-C18 2.1 x 50 mm; eluents: water / acetonitrile, 0.1% formic acid
# Method in brief: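 Using water and acetonitrile that each contained 0.1% formic acid, mixtures of ~100 pure standards were separated at 100 μL/min on a Zorbax Extend-C18 column (2.1 × 50 mm, 1.8 μm). The HPLC fed a quadrupole time-of-flight mass spectrometer working in positive and negative ionization mode, with dead and dwell volumes of 40 μL and 900 μL. Data were acquired over 3 months. Retention time was read from computationally picked adduct peaks after manual inspection of each.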
structure (smiles),measurement,value
COCCCNC(=O)CCCn1c(=O)c2cccn2c2ccccc21,RP-LC retention time,682 s
CCc1nc2cccnc2n1CCN1CCN(C(=O)Nc2cc(C)ccc2C)CC1,RP-LC retention time,598 s
CN1CCN(CCNC(=O)CN2C(=O)C3CCCCN3c3ccc(C(=O)N(C)C)cc32)CC1 (stereo not drawn),RP-LC retention time,578 s
CCc1ccc(OCC(O)Cn2c(C3CC3)nc3ccccc32)cc1 (stereo not drawn),RP-LC retention time,739 s
O=C(Cn1ccc2sccc2c1=O)Nc1cccc(Br)c1,RP-LC retention time,793 s
COc1ccc(Cl)cc1NC(=O)CCc1c(C)nn(-c2cc(N(C)C)ncn2)c1C,RP-LC retention time,940 s
NC(=NC1C2CC3CC(C2)CC1C3)Nc1ccc(I)cc1 (stereo not drawn),RP-LC retention time,887 s
O=[N+]([O-])c1cn2c(n1)OC[C@@H](OCc1ccc(OC(F)(F)F)cc1)C2,RP-LC retention time,916 s
COc1ccccc1Cc1noc(C2CN(C(=O)c3ccc(Cl)s3)C2)n1,RP-LC retention time,892 s
Cc1[nH]c(C(=O)Nc2ccccc2)c(C)c1S(=O)(=O)N1CCCCC1,RP-LC retention time,925 s
O=C(NCCc1csc(-c2ccc(Cl)cc2)n1)C(=O)Nc1ccc2c(c1)OCCO2,RP-LC retention time,1030 s
COc1cccc(-c2nc(NCC3CCCO3)ncc2C(=O)O)c1 (stereo not drawn),RP-LC retention time,712 s
COc1ccc(C(=O)NCCc2cn3cccc(C)c3n2)c(OC)c1,RP-LC retention time,551 s
CS(=O)(=O)N1CCCC1C(=O)Nc1ccc(F)cc1 (stereo not drawn),RP-LC retention time,693 s
COc1cccc(-c2nc3cnccn3c2NCCC(=O)NC2CCCCCC2)c1,RP-LC retention time,755 s
Cc1ccc(-c2noc(C3CC3)n2)cc1S(=O)(=O)N1CCC(C(=O)Nc2nccs2)CC1,RP-LC retention time,937 s
COc1ccc(-c2cn3c(CC(=O)Nc4ccc(OC)c(Cl)c4)csc3n2)cc1,RP-LC retention time,805 s
O=C(CN1CCN(Cc2cccc(Cl)c2)C1=O)NCC1CCCCC1,RP-LC retention time,920 s
COc1cc(C(=O)NC2CCN(c3cc(-c4ccccc4)[nH]n3)C2)cc(OC)c1OC (stereo not drawn),RP-LC retention time,688 s
CC(C)Nc1nc(-c2ccc([N+](=O)[O-])cc2)nc2ccccc12,RP-LC retention time,751 s
CN(C)CCNC(=O)CS(=O)Cc1cnn(-c2ccccc2)c1-n1cccc1 (stereo not drawn),RP-LC retention time,603 s
Cc1nn(-c2ccc(-c3noc(C4CC4)n3)cc2)cc1C(=O)NC1CCCC1,RP-LC retention time,940 s
CCN(C(=O)Cn1nc(S(=O)(=O)c2ccc(Cl)cc2)ccc1=O)c1ccccc1,RP-LC retention time,920 s
O=C1CC(c2noc(-c3ccccc3)n2)CN1Cc1ccccc1 (stereo not drawn),RP-LC retention time,642 s
CCc1nc(-c2cc(S(=O)(=O)N3CCN(c4ccc(F)cc4)CC3)c(C)s2)cs1,RP-LC retention time,1220 s
COc1cc(C2OC(c3ccc(F)cc3)=NN2C(C)=O)cc(OC)c1OC (stereo not drawn),RP-LC retention time,902 s
COc1ccc(C(=O)Nc2ccc3c(c2)Sc2ncccc2C(=O)N3C(C)C)c(OC)c1,RP-LC retention time,951 s
O=C(Cn1cnc2onc(-c3ccc(F)cc3)c2c1=O)N1CCCc2ccccc21,RP-LC retention time,1040 s
CC(=O)Nc1ccc(N2C(=O)c3cccc4c([N+](=O)[O-])ccc(c34)C2=O)cc1,RP-LC retention time,714 s
COc1cc(C(=O)N2CCC3(CC2)Nc2ccccc2-n2cccc23)cc(OC)c1OC,RP-LC retention time,902 s
Cc1ccc(S(=O)(=O)N2C[C@@H](F)C[C@H]2C(=O)N2CCOCC2)cc1F,RP-LC retention time,710 s
O=C(Cc1csc(-n2cccc2)n1)Nc1ccc(-n2cnnn2)cc1,RP-LC retention time,731 s
Cc1ccc(S(=O)(=O)N2C(=O)CCC2C(=O)NC2CCC(C)CC2)cc1 (stereo not drawn),RP-LC retention time,958 s
Cc1noc([C@@H]2CC(F)(F)CN2C(=O)c2cc(C)[nH]n2)n1,RP-LC retention time,604 s
CCc1nc(-c2csc(S(=O)(=O)N3CCCC(C(=O)Nc4c(C)cc(C)cc4C)C3)c2)no1 (stereo not drawn),RP-LC retention time,1210 s
CCN(CC)S(=O)(=O)c1ccc2c(c1)N(CC(=O)NC)C(=O)C1CCCCN21 (stereo not drawn),RP-LC retention time,753 s
Cc1ccc(CS(=O)(=O)N2CCc3nc(-c4ccc(F)cc4)ncc3C2)cc1,RP-LC retention time,1110 s
CCOC(=O)c1nc(N2CCOCC2)c2c(-c3ccccc3Cl)noc2n1,RP-LC retention time,934 s
CCCCC(=O)Nc1ccc(-c2nc(-c3cc(C)ccc3C)co2)cc1,RP-LC retention time,1280 s
CCOc1nc2ccccc2nc1N1CCCC(C(=O)Nc2ccc(Br)c(C)c2)C1 (stereo not drawn),RP-LC retention time,1420 s
COc1ccc(OC)c(NC(=O)CSc2cc(N3CCN(c4ccccc4F)CC3)ncn2)c1,RP-LC retention time,1180 s
Cc1cn2c(CCC(=O)NCCOc3ccc(F)cc3)csc2n1,RP-LC retention time,566 s
CCn1cnc2cc(-c3noc(C4CC(=O)N(c5ccc(C)cc5)C4)n3)ccc21 (stereo not drawn),RP-LC retention time,700 s
CCOc1ccc(NS(=O)(=O)c2cc(C(=O)Nc3ccc(C)cc3)n[nH]2)cc1,RP-LC retention time,890 s
COC(=O)c1nnn(-c2nonc2N)c1CN1CCN(c2ccccn2)CC1,RP-LC retention time,578 s
CCNC(=O)N1CCN(c2ccc(-c3noc(C4CC(=O)N(c5ccc(C)c(C)c5)C4)n3)cc2)CC1 (stereo not drawn),RP-LC retention time,885 s
CCOC(=O)CNC(=O)N1CCN(Cc2nc3cc(-c4ccccc4)ccc3o2)CC1,RP-LC retention time,601 s
O=C(CCc1c(-c2cccc(Cl)c2)nc2ccccn12)N1CCN(c2ccccc2)CC1,RP-LC retention time,718 s
CCOc1ccc(-c2nc3ncccn3c2NCc2ccc(F)cc2)cc1,RP-LC retention time,759 s
COc1ccc(CC(=O)N2CCN(S(=O)(=O)c3cc4c5c(c3)CCC(=O)N5CCC4)CC2)cc1,RP-LC retention time,786 s
Cc1ccc(NC(=O)Cn2nc3nc(N4CCCC(C)C4)ccn3c2=O)c(C)c1 (stereo not drawn),RP-LC retention time,808 s
O=C(Cn1c(=O)c2cc(-c3cccs3)nn2c2ncccc21)Nc1ccc(Cl)cc1,RP-LC retention time,932 s
CN1CCN(c2cc(C(=O)O)c3cc(F)ccc3n2)CC1,RP-LC retention time,551 s
CC(C)Oc1ccc(CN2CC[C@]3(CO)CN(Cc4ccccc4)C[C@@H]3C2)cc1,RP-LC retention time,718 s
Cc1ccc2nc3c(c(C(=O)NC4CC4)c2c1)CCCC3,RP-LC retention time,584 s
Cc1ccc(C)c(CNC(=O)c2ccc(-c3nc4cccnc4n3C3CCCCC3)cc2)c1,RP-LC retention time,1120 s
O=C(c1cccs1)N1CCC(F)(C(=O)NC2CC2)CC1,RP-LC retention time,634 s
COCCNC(=O)C1CCN(C(=O)c2cccn2-c2cccnc2)CC1,RP-LC retention time,578 s
Cn1c(-c2cccc(C(=O)NCc3cc(F)cc(F)c3)c2)nc2cccnc21,RP-LC retention time,762 s
CCn1cc(-c2ccccc2)cc1C(=O)NCC(C)C,RP-LC retention time,1070 s
COc1cc(C2CC(=O)c3c([nH]c(C(=O)OC4CCCCC4)c3C)C2)cc(OC)c1OC (stereo not drawn),RP-LC retention time,1090 s
CC(C)n1nccc1-c1nnc(NC(=O)C2CC(=O)N(c3ccc(F)cc3)C2)o1 (stereo not drawn),RP-LC retention time,685 s
COC(=O)c1cc2n(n1)CC(C)(C(=O)NC1CCCCC1)N(c1ccc(F)cc1)C2=O (stereo not drawn),RP-LC retention time,847 s
Cc1ccc(C(=O)NCc2nn(C)c3ccccc23)c(C)c1,RP-LC retention time,857 s
O=C(CCn1cnc2cc(-c3noc(-c4cccc(Cl)c4)n3)ccc21)N1CCOCC1,RP-LC retention time,754 s
N#Cc1ccc(C(=O)Nc2cnc(-c3cccc(Cl)c3)nc2)cc1,RP-LC retention time,1050 s
CCOC(=O)c1cccc(NC(=O)C2CCCN(c3nnc(C)c4c(C)n(-c5ccccc5)nc34)C2)c1 (stereo not drawn),RP-LC retention time,797 s
CCc1cc(C(=O)Nc2cc(Cl)ccc2OC)nc2ccnn12,RP-LC retention time,1210 s
CN1CCN(C(=O)c2cc(-c3cccs3)n(CC(=O)NCc3ccco3)n2)CC1,RP-LC retention time,572 s
CN(CC1(C)CCOCC1)C(=O)Cc1c(F)cccc1Cl,RP-LC retention time,863 s
O=S(=O)(c1ccccc1Br)N1CCc2nc(-c3ccc(F)cc3)ncc2C1,RP-LC retention time,1130 s
O=C(COc1ccccc1F)Nc1nnc(-c2ccsc2)o1,RP-LC retention time,701 s
Cc1ccc(-c2noc(-c3nnn(Cc4nc(-c5cccc(Cl)c5)oc4C)c3C)n2)cc1,RP-LC retention time,908 s
COc1cccc(CC(=O)NC2CCN(c3cc(-c4ccccc4)[nH]n3)C2)c1 (stereo not drawn),RP-LC retention time,673 s
O=c1c2cc(-c3ccc(F)cc3)nn2ccn1Cc1nc(-c2cccc(Br)c2)no1,RP-LC retention time,1150 s
Cc1cc2c(=O)n(CC(=O)NCc3ccccc3F)ccc2s1,RP-LC retention time,732 s
CO[C@@H]1C=C2CCN(C)[C@@H]2C2c3cc4c(cc3C(=O)O[C@H]21)OCO4 (stereo partly drawn),RP-LC retention time,636 s
CCc1ccccc1S(=O)(=O)N1CCC(C(=O)NCc2csc(-c3ccccc3)n2)CC1,RP-LC retention time,999 s
Cc1ccc(C)c(Cn2nc3ccc(S(=O)(=O)N4CCSCC4)cn3c2=O)c1,RP-LC retention time,996 s
O=C(c1nc2ccccc2s1)N(Cc1ccsc1)Cc1ccco1,RP-LC retention time,1110 s
CCc1ccc(C(=O)NCCc2nc3cccnc3n2CC)cc1,RP-LC retention time,694 s
CCCN(CC1CCOC1)C(=O)Nc1cc(Cl)ccc1OC (stereo not drawn),RP-LC retention time,961 s
CCOC(=O)c1noc2ncnc(Nc3ccccc3C)c12,RP-LC retention time,1010 s
CC(C)Oc1ccc(-c2noc(Cn3nc(-c4ccccc4)ccc3=O)n2)cc1,RP-LC retention time,732 s
Cc1cc(C)c(S(=O)(=O)Nc2ccc3nc(N4CCN(C)CC4)cc(C(=O)O)c3c2)cc1C,RP-LC retention time,611 s
O=C(Cc1ccsc1)N1CCC2(CC1)CC(N1CCCCC1)CCO2 (stereo not drawn),RP-LC retention time,590 s
COc1ccccc1-c1nnc(-c2ccc(Cl)c(S(=O)(=O)N3CCCCCC3)c2)o1,RP-LC retention time,1150 s
O=C(NC1CCCCCC1)C1CCCN(C(=O)c2ccc(Cl)cc2)C1 (stereo not drawn),RP-LC retention time,904 s
